Numbered stars: 1 amine (or outer) side, 2 acyl side, 3 side chain; on linkers, the order of the positions; unused ones are H or OH. Square brackets hold non-standard residues; d marks the D form. Peptide text beside a SMILES is read from it. * marks the point of attachment. DOTA = O=C(O)CN1CCN(CC(=O)O)CCN(CC(=O)*)CCN(CC(=O)O)CC1; Gly(N-(3-F-4-Me-benzyl)) = Cc1ccc(CNCC(=O)*)cc1F; Gly(N-3-F-4-Me-benzyl) = Cc1ccc(CNCC(=O)O)cc1F; Bpa = N[C@@H](Cc1ccc(C(=O)c2ccccc2)cc1)C(=O)O; X4 = O=C(c1ccc(-c2ccccc2OCCCN[*:1])cc1)[*:2]; Api(1-amidino) = N=C(N)N1CCC(N)(C(=O)O)CC1; Phe(4-CN) = N#Cc1ccc(C[C@H](N)C(=O)O)cc1; 2Nal = N[C@@H](Cc1ccc2ccccc2c1)C(=O)O; d2Nal = N[C@H](Cc1ccc2ccccc2c1)C(=O)O; X1 = O=C(CN1CCC(N[*:1])CC1)[*:2]; dCya = N[C@H](CS(=O)(=O)O)C(=O)O; 4Pal = N[C@@H](Cc1ccncc1)C(=O)O; d4Pal = N[C@H](Cc1ccncc1)C(=O)O; Api = NC1(C(=O)O)CCNCC1; PEG2 = NCCOCCOCCC(=O)O; Ahx = NCCCCCC(=O)O; azaGly = NNC(=O)O; Sar = CNCC(=O)O
The compounds below were run against human kisspeptin receptor (Homo sapiens (Human), UniProt Q969F8) (assay: Human KISS1R binding assay (membrane competition binding)). Conditions: 90 min at room temperature; competition with 0.2 nM [125I]-metastin (45-54); Flp-In T-Rex 293 kisspeptin membranes; metal complexes nonradioactive Ga, In, Lu; read-out: hKiSSR Binding Ki (90 min).
How it was run: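 Membranes from tetracycline-induced (48 h) Flp-In T-Rex 293 cells expressing receptor, 5–10 μg, incubated 90 min at room temperature with 0.2 nM [125I]-metastin (45-54) and competitor (typically 0–10,000 nM) in Tris/Mg/Ca/EGTA/0.1% BSA, pH 7.4. Filtration, washing, counting; Ki by non-linear regression.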

Sequence of human kisspeptin receptor (Q969F8 whole entry): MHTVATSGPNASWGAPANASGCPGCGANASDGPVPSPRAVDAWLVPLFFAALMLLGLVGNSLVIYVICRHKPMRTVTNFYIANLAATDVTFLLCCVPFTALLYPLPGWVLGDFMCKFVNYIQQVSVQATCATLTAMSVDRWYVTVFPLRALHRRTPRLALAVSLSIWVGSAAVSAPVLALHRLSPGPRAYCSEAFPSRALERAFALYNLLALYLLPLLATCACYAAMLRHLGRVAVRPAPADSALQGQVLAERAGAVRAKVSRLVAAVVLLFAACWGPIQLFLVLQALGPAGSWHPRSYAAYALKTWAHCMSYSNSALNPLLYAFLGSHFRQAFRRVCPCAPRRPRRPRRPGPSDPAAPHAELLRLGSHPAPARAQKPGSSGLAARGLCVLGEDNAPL

Structure (SMILES)	Ki [nM]
Cc1ccc(CNCC(=O)N2CCC(NC(=O)[C@H](CC(C)C)NC(=O)NNC(=O)[C@H](Cc3ccccc3)NC(=O)[C@@H](CC(N)=O)NC(=O)CN3CCN(CC(=O)O)CCN(CC(=O)O)CCN(CC(=O)O)CC3)(C(=O)N[C@@H](Cc3c[nH]c4ccccc34)C(N)=O)CC2)cc1F [Compound 21] ({DOTA}-[dN]F[azaGly]L[Api](Gly(N-(3-F-4-Me-benzyl)))W-NH2)	10 to 100
Cc1ccc(CNCC(=O)N2CCC(NC(=O)[C@H](CC(C)C)NC(=O)NNC(=O)[C@H](Cc3ccccc3)NC(=O)[C@@H](N)CCCCNC(=O)CN3CCN(CC(=O)O)CCN(CC(=O)O)CCN(CC(=O)O)CC3)(C(=O)N[C@@H](Cc3c[nH]c4ccccc34)C(N)=O)CC2)cc1F [Compound 37] (H-K(DOTA)F[azaGly]L[Api](Gly(N-(3-F-4-Me-benzyl)))W-NH2)	< 10
Cc1ccc(CNCC(=O)N2CCC(NC(=O)[C@H](CC(C)C)NC(=O)NNC(=O)[C@H](Cc3ccccc3)NC(=O)[C@@H](NC(=O)[C@H](CC(N)=O)NC(=O)[C@@H](Cc3c[nH]c4ccccc34)NC(=O)[C@@H](Cc3ccc(O)cc3)NC(=O)CCCCCNC(=O)[C@@H](CS(=O)(=O)O)NC(=O)[C@@H](CS(=O)(=O)O)NC(=O)CN3CCN(CC(=O)O)CCN(CC(=O)O)CCN(CC(=O)O)CC3)[C@@H](C)O)(C(=O)N[C@@H](Cc3c[nH]c4ccccc34)C(N)=O)CC2)cc1F [Compound 120] ({DOTA}-[dCya][dCya][Ahx][dY][dW]NTF[azaGly]L[Api](Gly(N-(3-F-4-Me-benzyl)))W-NH2)	< 10
Cc1ccc(CNCC(=O)N2CCC(NC(=O)[C@H](CC(C)C)NC(=O)NNC(=O)[C@H](Cc3ccccc3)NC(=O)CCCCCNC(=O)CN3CCN(CC(=O)O)CCN(CC(=O)O)CCN(CC(=O)O)CC3)(C(=O)N[C@@H](Cc3c[nH]c4ccccc34)C(N)=O)CC2)cc1F [Compound 2] ({DOTA-Ahx}-F[azaGly]L[Api](Gly(N-(3-F-4-Me-benzyl)))W-NH2)	< 10
CNCC(=O)N1CCC(NC(=O)[C@H](CC(C)C)NC(=O)NNC(=O)[C@H](Cc2ccccc2)NC(=O)[C@@H](NC(=O)[C@H](CC(N)=O)NC(=O)[C@H](CCCCNC(=O)CN2CCN(CC(=O)O)CCN(CC(=O)O)CCN(CC(=O)O)CC2)NC(=O)[C@@H](Cc2ccc(O)cc2)NC(=O)CCOCCOCCNC(=O)CNCc2ccc(C)c(F)c2)[C@@H](C)O)(C(=O)N[C@H](Cc2c[nH]c3ccccc23)C(N)=O)CC1 [Compound 359] (H-[Gly(N-3-F-4-Me-benzyl)][PEG2][dY]K(DOTA)NTF[azaGly]L[Api](Sar)[dW]-NH2)	< 10
Cc1ccc(CNCC(=O)N2CCC(NC(=O)c3cccc(OCCNC(=O)[C@H](Cc4ccccc4)NC(=O)CCCCCNC(=O)CN4CCN(CC(=O)O)CCN(CC(=O)O)CCN(CC(=O)O)CC4)c3)(C(=O)N[C@@H](Cc3c[nH]c4ccccc34)C(N)=O)CC2)cc1F [Compound 134]	10 to 100
Cc1ccc(CNCC(=O)N2CCC(NC(=O)[C@H](CC(C)C)n3cc([C@H](Cc4ccccc4)NC(=O)[C@@H](N)CCCCNC(=O)CN4CCN(CC(=O)O)CCN(CC(=O)O)CCN(CC(=O)O)CC4)nn3)(C(=O)N[C@@H](Cc3c[nH]c4ccccc34)C(N)=O)CC2)cc1F [Compound 204]	> 100
Cc1ccc(CNCC(=O)N2CCC(NC(=O)[C@H](CC(C)C)NC(=O)NNC(=O)[C@H](Cc3ccccc3)NC(=O)[C@@H](NC(=O)[C@H](CC(N)=O)NC(=O)[C@@H](Cc3ccncc3)NC(=O)[C@@H](Cc3ccc(O)cc3)NC(=O)CNC(=O)CN3CCN(CC(=O)O)CCN(CC(=O)O)CCN(CC(=O)O)CC3)[C@@H](C)O)(C(=O)N[C@@H](Cc3ccc(O)cc3)C(N)=O)CC2)cc1F [Compound 193] ({DOTA}-G[dY][d4Pal]NTF[azaGly]L[Api](Gly(N-(3-F-4-Me-benzyl)))Y-NH2)	< 10
Cc1ccc(CNCC(=O)N2CCC(NC(=O)[C@H](CC(C)C)NC(=O)NNC(=O)[C@H](Cc3ccccc3)NC(=O)[C@@H](NC(=O)[C@H](CC(N)=O)NC(=O)[C@@H](Cc3c[nH]c4ccccc34)NC(=O)[C@H](CC(N)=O)NC(=O)[C@@H](Cc3ccc(O)cc3)NC(=O)CCCCCNC(=O)CN3CCN(CC(=O)O)CCN(CC(=O)O)CCN(CC(=O)O)CC3)[C@@H](C)O)(C(=O)N[C@@H](Cc3ccncc3)C(N)=O)CC2)cc1F [Compound 106] ({DOTA-Ahx}-[dY]N[dW]NTF[azaGly]L[Api](Gly(N-(3-F-4-Me-benzyl)))[4Pal]-NH2)	< 10
Cc1ccc(CNCC(=O)N2CCC(NC(=O)[C@H](CC(C)C)NC(=O)NNC(=O)c3ccc(-c4ccccc4OCCCNC(=O)CCCCCNC(=O)CN4CCN(CC(=O)O)CCN(CC(=O)O)CCN(CC(=O)O)CC4)cc3)(C(=O)N[C@@H](Cc3c[nH]c4ccccc34)C(N)=O)CC2)cc1F [Compound 297] ({DOTA-Ahx}-[X4][azaGly]L[Api](Gly(N-(3-F-4-Me-benzyl)))W-NH2)	< 10
Cc1ccc(CNCC(=O)N2CCC(NC(=O)[C@H](CC(C)C)NC(=O)NNC(=O)[C@H](Cc3ccccc3)NC(=O)[C@@H](NC(=O)[C@H](CC(N)=O)NC(=O)[C@@H](Cc3c[nH]c4ccccc34)NC(=O)CCCCCNC(=O)CN3CCN(CC(=O)O)CCN(CC(=O)O)CCN(CC(=O)O)CC3)[C@@H](C)O)(C(=O)N[C@@H](Cc3ccncc3)C(N)=O)CC2)cc1F [Compound 290] ({DOTA-Ahx}-[dW]NTF[azaGly]L[Api](Gly(N-(3-F-4-Me-benzyl)))[4Pal]-NH2)	< 10
Cc1ccc(CNCC(=O)N2CCC(NC(=O)[C@H](CC(C)C)NC(=O)NNC(=O)[C@H](Cc3ccccc3)NC(=O)[C@@H](NC(=O)[C@H](CC(N)=O)NC(=O)[C@@H](Cc3ccncc3)NC(=O)[C@@H](Cc3ccc(O)cc3)NC(=O)CN3CCC(NC(=O)CN4CCN(CC(=O)O)CCN(CC(=O)O)CCN(CC(=O)O)CC4)CC3)[C@@H](C)O)(C(=O)N[C@@H](Cc3c[nH]c4ccccc34)C(N)=O)CC2)cc1F [Compound 29] ({DOTA}-[X1][dY][d4Pal]NTF[azaGly]L[Api](Gly(N-(3-F-4-Me-benzyl)))W-NH2)	< 10
CNCC(=O)N1CCC(NC(=O)[C@H](CC(C)C)NC(=O)NNC(=O)[C@H](Cc2ccccc2)NC(=O)[C@@H](NC(=O)[C@H](CC(N)=O)NC(=O)[C@H](Cc2ccc(C(=O)c3ccccc3)cc2)NC(=O)[C@@H](Cc2ccc(O)cc2)NC(=O)CCCCCNC(=O)CN2CCN(CC(=O)O)CCN(CC(=O)O)CCN(CC(=O)O)CC2)[C@@H](C)O)(C(=O)N[C@H](Cc2c[nH]c3ccccc23)C(N)=O)CC1 [Compound 345] ({DOTA-Ahx}-[dY][Bpa]NTF[azaGly]L[Api](Sar)[dW]-NH2)	< 10
CNCC(=O)N1CCC(NC(=O)[C@H](CC(C)C)NC(=O)NNC(=O)[C@H](Cc2ccccc2)NC(=O)[C@@H](NC(=O)[C@H](CC(N)=O)NC(=O)[C@@H](Cc2ccc3ccccc3c2)NC(=O)[C@H](N)Cc2ccc(O)cc2)[C@@H](C)O)(C(=O)N[C@@H](Cc2ccccc2)C(N)=O)CC1 [Compound 406] (H-[dY][d2Nal]NTF[azaGly]L[Api](Sar)F-NH2)	< 10
CC(C)C[C@H](NC(=O)NNC(=O)[C@H](Cc1ccccc1)NC(=O)[C@@H](NC(=O)[C@H](CC(N)=O)NC(=O)[C@H](Cc1ccc2ccccc2c1)NC(=O)[C@@H](Cc1ccc(O)cc1)NC(=O)CCCCCNC(=O)CN1CCN(CC(=O)O)CCN(CC(=O)O)CCN(CC(=O)O)CC1)[C@@H](C)O)C(=O)NC1(C(=O)N[C@@H](Cc2ccc(C#N)cc2)C(N)=O)CCN(C(=N)N)CC1 [Compound 278] ({DOTA-Ahx}-[dY][2Nal]NTF[azaGly]L[Api(1-amidino)][Phe(4-CN)]-NH2)	< 10
